Laboratory results from patent US20190083462A1, “PREVENTION OF NSAID ENTEROPATHY WITH MICROBIOTA-DERIVED TRYPTOPHAN-METABOLITE” (THE TEXAS A&M UNIVERSITY SYSTEM, priority 2016, published 2019).
Marks after values point to notes of the source that are not given here.

System: fecal microbiota
Assay: Fecal microbiota 16S rRNA sequencing (ANOSIM, SIMPER)
Assay type: in vivo, mice
[1] = unweighted Unifrac distance metric, day 7

COc1ccc2c(c1)c(CC(=O)O)c(C)n2C(=O)c1ccc(Cl)cc1 [NSAID, indomethacin]
members of the Bacteroidales S24-7 family (SIMPER, day 7 feces): gain | mean % abundance (family Unassigned, Other, day 7 feces): 0.00317% | mean % abundance (family c_Bacilli, Other, day 7 feces): 0% | mean % abundance (family o_Actinomycetales, f_Micrococcaceae, day 7 feces): 0.00951% | mean % abundance (family o_Anaeroplasmatales, f_Anaeroplasmataceae, day 7 feces): 0.0317% | mean % abundance (family o_Bacillales, Other, day 7 feces): 0.019% | mean % abundance (family o_Bacillales, f_Bacillaceae, day 7 feces): 0.00317% | mean % abundance (family o_Bacillales, f_Staphylococcaceae, day 7 feces): 0.019% | mean % abundance (family o_Bacteroidale, f_Bacteroidaceae, day 7 feces): 0.00634% | mean % abundance (family o_Bacteroidales, f_Prevotellaceae, day 7 feces): 0.00317% | mean % abundance (family o_Bacteroidales, f_S24-7, day 7 feces): 81.2% | mean % abundance (family o_Clostridiales, Other, day 7 feces): 0.00317% | mean % abundance (family o_Clostridiales, f_ (unnamed), day 7 feces): 7.67% | mean % abundance (family o_Clostridiales, f_Clostridiaceae, day 7 feces): 1.68% | mean % abundance (family o_Clostridiales, f_Dehalobacteriaceae, day 7 feces): 0.00634% | mean % abundance (family o_Clostridiales, f_Lachnosoiraceae, day 7 feces): 1.31% | mean % abundance (family o_Clostridiales, f_Ruminococcaceae, day 7 feces): 3.53% | mean % abundance (family o_Clostridiales, f_[Mogibacteriaceae], day 7 feces): 0.00634% | mean % abundance (family o_Coriobacteriales, f_Coriobacteriaceae, day 7 feces): 0.0381% | mean % abundance (family o_Cytophagales, f_Cytophagacae, day 7 feces): 0% | mean % abundance (family o_Erysipelotrichales, f_Erysipelotrichaceae, day 7 feces): 0.136% | mean % abundance (family o_Lactobacillales, f_Aerococcaceae, day 7 feces): 0% | mean % abundance (family o_Lactobacillales, f_Enterococcaceae, day 7 feces): 0.171% | mean % abundance (family o_Lactobacillales, f_Lactobacillaceae, day 7 feces): 2.48% | mean % abundance (family o_Lactobacillales, f_Streptococcaceae, day 7 feces): 0% | mean % abundance (family o_RF 39, f_ (unnamed), day 7 feces): 1.62% | mean % abundance (family o_Turicibacterales, f_Turicibacteraceae, day 7 feces): 0.0412% | abundance of members of the phyla Firmicutes and Bacteroidetes (fecal 16S rRNA sequences, Day 0 vs Day 7): no significant difference | mean % abundance (mouse, in vivo): 0% | mean % abundance (order Unassigned, Other, day 7 feces): 0.00317% | mean % abundance (order c_Mollicutes, o_RF39, day 7 feces): 1.62% | mean % abundance (order o_Actinomycetales, day 7 feces): 0.00951% | mean % abundance (order o_Anaeroplasmatales, day 7 feces): 0.0317% | mean % abundance (order o_Bacillales, day 7 feces): 0.0412% | mean % abundance (order o_Bacteroidales, day 7 feces): 81.2% | mean % abundance (order o_Clostridiales, day 7 feces): 14.2% | mean % abundance (order o_Coriobacteriales, day 7 feces): 0.0381% | mean % abundance (order o_Cytophagales, day 7 feces): 0% | mean % abundance (order o_Erysipelotrichales, day 7 feces): 0.136% | mean % abundance (order o_Lactobacillales, day 7 feces): 2.65% | mean % abundance (order o_Turicibacterales, day 7 feces): 0.0412% | mean % abundance (order p_Firmicutes, c_Bacilli, Other, day 7 feces): 0% | mean % abundance (phylum Unassigned, Other, day 7 feces): 0.00317% | mean % abundance (phylum k_Bacteria, Other, day 7 feces): 0% | mean % abundance (phylum k_Bacteria, p_Acidobacteria, day 7 feces): 0.00317% | mean % abundance (phylum k_Bacteria, p_Actinobacteria, day 7 feces): 0.0476% | mean % abundance (phylum k_Bacteria, p_Bacteroidetes, day 7 feces): 81.2% | mean % abundance (phylum k_Bacteria, p_Cyanobacteria, day 7 feces): 0.00634% | mean % abundance (phylum k_Bacteria, p_Firmicutes, day 7 feces): 17.1% | mean % abundance (phylum k_Bacteria, p_Proteobacteria, day 7 feces): 0.00317% | mean % abundance (phylum k_Bacteria, p_Tenericutes, day 7 feces): 1.66% | mean % abundance (phylum k_Bacteria, p_Verrucomicrobia, day 7 feces): 0% | Pairwise ANOSIM R-value vs Control [1]: 0.5487* | Pairwise ANOSIM R-value vs Indole [1]: 0.2615 | Pairwise ANOSIM R-value vs NSAID + Indole [1]: 0.4444
